The values that follow come from patent US9795626B2, “Cancer therapy using miRNAs” (THE UNIVERSITY OF WESTERN AUSTRALIA, priority 2012, dated 2017).

Several values for one entry are separate records, joined by “and”; a condition that tells them apart may be missing. Equal entries are not always repeated.

In test [1] the test system is breast cancer cell line MCF-7. As to the kind of experiment: Drug sensitivity assay (cell viability after 4 days of drug). It is filed as cell-based. The note with it: MCF-7 (positive control).
Test [2] deals with MM96L melanoma cells. As to the kind of experiment: Cell viability assay (MTS) after miRNA transfection, with or without drug; Bliss synergy analysis. Conditions: for EObs: observed fractional inhibition of the combination.
Procedure: (§1) Cells were seeded in 96-well plates at a density of 2.5×10^3 cells per well and transfected with miRNA precursor molecules as above. Cell viability was measured 5 days after transfection using CellTitre 96 Aqueous One Solution Cell Proliferation Assay Kit (MTS assay) and a FLUOstar OPTIMA microplate reader. For synergy analysis between drugs and miR-7-5p, cells were plated as above and drug or DMSO was added 3 days after transfection with miR-7-5p or miR-NC for 4 days, at which time cell viability was measured (7 days after transfection).
(§2) Statistical significance was calculated using Student's t test (one-tailed, unpaired) and the level of significance was set at p<0.05. Drug sensitivity (IC50) was calculated using GraphPad Software (GraphPad Prism, version 5.04). The Bliss additivism model was used for synergy analysis. […] Here, Ebliss is the fractional inhibition expected if the combination of miR-7-5p and drug B was exactly additive. If the experimentally measured fractional inhibition is greater than Ebliss, the combination is synergistic.
The test system of test [3] is WM266-4 melanoma cells. Described as above. Conditions: for EObs: observed fractional inhibition of the combination.
Procedure: as §1, §2
The subject of test [4] is Akt. In words: IGF-1-induced activation of Akt signaling under NVP-AEW541 (data not shown). The format is cell-based.
The test system of test [5] is SK-MEL-28 melanoma cells. As to the kind of experiment: Cell viability assay (MTS) after miRNA transfection, with or without drug; Bliss synergy analysis. Conditions: for EObs/EBliss: >1 = synergistic; for EBliss: fractional inhibition expected if exactly additive; for EObs: observed fractional inhibition of the combination.
Procedure: as §1, §2
Test [6] relates to melanoma cell lines (SK-MEL-28, WM266-4, MM96L and A2058). In words: Drug sensitivity assay (cell viability after 4 days of drug). The format is cell-based. Conditions: range over the melanoma cell lines.
In test [7] the test system is A2058 melanoma cells. As to the kind of experiment: Cell viability assay (MTS) after miRNA transfection, with or without drug; Bliss synergy analysis. Conditions: for EObs/EBliss: >1 = synergistic; for EBliss: fractional inhibition expected if exactly additive; for EObs: observed fractional inhibition of the combination; for cell viability, combination of miR-7-5p and drug compared to miR-NC: miR-7-5p 5 nM, suboptimal dose of drug (below the IC50) added 3 days post-transfection, 4 further days; for synergy of combination with miR-7-5p (Bliss additivism model): observed fractional inhibition greater than calculated additive inhibition.
Procedure: as §1, §2

Test [8] has as its system ERK 1/2. As to the kind of experiment: IGF-1-induced activation of ERK 1/2 signaling under NVP-AEW541 (data not shown). It is filed as cell-based.
Test [9] has as its system WM266-4 melanoma cells. In words: Drug sensitivity assay (cell viability after 4 days of drug). It is filed as cell-based. Conditions: Homo sapiens, WM 266-4, 96 h, WM266-4 (wild type p53).
The test system of test [10] is A2058 melanoma cells. The description is as above. It is filed as cell-based. The note with it: Homo sapiens, 96 h, A2058 (wild type p53).
The mark [11] stands for this setting: [miR-7-5p] 5 nM + [drug] 5 μM, >1 = synergistic.
The mark [12] stands for this setting: [miR-7-5p] 5 nM + [drug] 5 μM, fractional inhibition expected if exactly additive.
Where [13] appears, read: [miR-7-5p] 5 nM + [drug] 100 nM.
Where [14] appears, read: [miR-7-5p] 5 nM + [drug] 150 μM.

As a reminder, the IC50 is the concentration that gives 50% inhibition. In the case of `Nc1ncnc2c1c(-c1cccc(OCc3ccccc3)c1)cn2C1CC(CN2CCC2)C1` (centres unmarked) [NVP-AEW541], the IC50 was 1.5 µM in test [1] and 8.27 to 25.1 µM in [6]. The EObs/EBliss was 1.06 in test [2] (setting [11]); 1.06 in test [3] (setting [11]); 1.24 and 1.17 in test [5] ([miR-7-5p] 5 nM + [drug] 5 μM); 1.10 and 1.20 in test [7] ([miR-7-5p] 5 nM + [drug] 5 μM). Besides, the EBliss is 0.515 in test [2] (setting [12]); 0.715 in test [3] (setting [12]); 0.474 and 0.265 in test [5] ([miR-7-5p] 5 nM + [drug] 5 μM); 0.769 and 0.720 in [7] ([miR-7-5p] 5 nM + [drug] 5 μM). In addition, the EObs in test [2] ([miR-7-5p] 5 nM + [drug] 5 μM) was 0.547; in test [3] ([miR-7-5p] 5 nM + [drug] 5 μM), 0.757; in [5] ([miR-7-5p] 5 nM + [drug] 5 μM), 0.588 and 0.309; in test [7] ([miR-7-5p] 5 nM + [drug] 5 μM), 0.846 and 0.866. In [4] (MCF-7 breast cancer cells), the “IGF-1-induced activation of Akt signaling pathway” value is listed as “attenuated”. For the same compound, the “Akt activity (IGF-1-induced)” value in test [4] (melanoma cell lines) is “abrogated”. In addition, in test [7], the “cell viability, combination of miR-7-5p and drug compared to miR-NC” value is “significant reduction”. The “synergy of combination with miR-7-5p (Bliss additivism model)” value in [7] is given as “synergistic”. The “IGF-1-induced activation of ERK 1/2 signaling pathway” value in [8] (MCF-7 breast cancer cells) is listed as “attenuated”. In addition, in test [8] (melanoma cell lines), the “ERK 1/2 activity (IGF-1-induced)” value is recorded as “persistence of ERK 1/2 activity”.

For `CCCS(=O)(=O)Nc1ccc(F)c(C(=O)c2c[nH]c3ncc(-c4ccc(Cl)cc4)cc23)c1F` [PLX4032, vemurafenib], the EObs in test [2] ([miR-7-5p] 2.5 nM^ + [drug] 50 nM) is 0.972 and 0.803 and 0.547; in test [5] ([miR-7-5p] 5 nM + [drug] 50 nM) it was 0.661; in [5] (setting [13]) it was 0.773; in test [7] (setting [13]), 0.855 and 0.853 and 0.790. For the same compound, the 50% inhibitory concentration (IC50) in test [6] (96 h) is 0.08 to 0.23 µM.

As for `COc1cc([C@@H]2c3cc4c(cc3[C@H](O)[C@H]3COC(=O)[C@@H]23)OCO4)cc(OC)c1OC` [PPP, picropodophyllin], in test [5] (setting [13]), the EObs/EBliss was 1.80 and 1.30; the EBliss is 0.292 and 0.391; the EObs is 0.526 and 0.508. Moreover, in test [6] (96 h), the IC50 lay in the range of 0.15 to 0.3 µM. In addition, in [7] (setting [13]), the EObs/EBliss is 1.48 and 1.03 and 1.18; the EBliss is 0.447 and 0.684 and 0.420; the EObs was 0.663 and 0.704 and 0.496. Also, in test [7], the “cell viability, combination of miR-7-5p and drug compared to miR-NC” value is given as “significant reduction”; the “synergy of combination with miR-7-5p (Bliss additivism model)” value is “synergistic”.

Regarding `Cn1nnc2c(C(N)=O)ncn2c1=O` [TMZ, temozolomide], the half-maximal inhibitory concentration (IC50) in test [9] was determined as 73.1 µM; in test [10] it was 167 µM. The EObs in test [2] (setting [14]) is 0.747; in test [2] ([miR-7-5p] 5 nM + [drug] 500 μM), 0.864 and 0.878; in [3] ([miR-7-5p] 5 nM + [drug] 50 μM) it was 0.748 and 0.732; in [7] ([miR-7-5p] 5 nM + [drug] 50 μM), 0.680; in test [7] (setting [14]), 0.811 and 0.633.
